Results from patent US12673926B2, “Tetrazine compounds for in vivo imaging” (KØBENHAVNS UNIVERSITET, priority 2018, dated 2026).

Tests used:
[1] = Rate constant measurements (stopped-flow, pseudo-first order); conditions: at 25° C.
Description: Based on these encouraging results, a study was performed to investigate whether the identified labeling conditions could be applied to Tzs that are more reactive. In this respect, Tz's with stepwise increased reactivity have been tested. […] Synthesis of respective reference compounds and precursors was completed in the same manner as discussed before. Respective second-order rate constants were determined via stopped-flow measurements. […] Radiolabeling was studied using the best aliquot conditions identified in our previous experiments. RCC for [^18F]7, [18F]8 and [^18F]9 were 35%, 30%, and 33%, respectively.
[…] Measurements were performed using a SX20 stopped flow photometer (Applied Photophysics, UK) equipped with a 360 nm LED light source and a photomultiplier type R374 in combination with a 400 nm longpass filter as detector.

TCO click ability = conditions: TCO-KSMO in PBS, TLC
Description: To a solution of TCO-KSMO (the polymer) 500 μL (1 mg/mL) PBS was added 100 μL of the formulated tetrazine.
In given time intervals, 2 μL of the solution was withdrawn and quenched with 20 μL of a 3 mg/mL bispyridine-tetrazine solution. TLC (EtOAc) determined the fraction of tetrazines reacted to the TCO. (tetrazine; front, 1,4 adduct; baseline)

[2] = Pretargeted PET/CT imaging with TCO-BP pretreatment; assay type: in vivo, Balb/c mice; conditions: BP-TCO pretreated mice vs controls; i.v.; 60 min dynamic PET
Description: All animal studied were approved by the Danish Animal Welfare Council, ministry of Justice. Five weeks old female Balb/c mice (Charles River) were acclimatized for one week with access to water and chow ad libitum. Trans-cyclooctene functionalized bisphosphonates (TCO-BP's) (100 μg. 100 μl PBS) were injected i.v. (n=2), and 1 hour later animals were administered i.v. with [^18F]9 (ca 4MBq) via the tail vein.
The animals were scanned on a dedicated small animal PET/CT scanner (Siemens) during which they were kept anesthetized by breathing sevoflurane and their temperature maintained by heating pad. Immediately after injection of [^18F]9, the animals were moved to a small animal PET/CT scanner and a 60 min dynamic PET acquisition (energy window of 350-650 KeV and a time resolution of 6 ns) was performed followed by a CT scan (360 projections, 65 kV, 500 ρA and 400 ms). Sinograms from PET scans were framed and reconstructed using a 3-dimensional maximum a posteriori algorithm with CT-based attenuation correction. PET and CT images were co-registered and analysed using Inveon software (Siemens). The mean percentage of injected dose per grams (% ID/g) in different tissues was extracted by manually creating regions of interest on fused PET/CT images.
The bioorthogonal chemistry employed is illustrated in FIG. 1. […]

[3] = Blood stability (TLC data); assay type: in vitro ADME; conditions: mice whole blood, 37° C.
Description: (§1) Blood stability was tested by mixing 250 μL mice whole blood with 250 μL of the formulated Tz, the mixture was heated and shaken at 37° C. At given time points 1, 2, 3, 5, 10, 20, 60 and 180 min, 20 μL were withdrawn and cooled to 0° C. At the same time points, 20 μL were added to a 20 μL of a solution of 1 mg/mL KSMO (TCO-Polymer) in PBS and left at RT for 1 h.
(§2) The mixtures were then centrifuged at 4200 rpm for 3 min, before ACN (40 μL) was added and centrifuged again for 3 min at 4200 rpm. The supernatant was withdrawn and analyzed with TLC and/or HPLC.

[4] = TCO click ability after incubation in blood; set-up: species or system mice; conditions: KSMO 1 h RT
Description: as §1, §2

[5] = Blood stability (TLC data); assay type: in vitro ADME; conditions: mice whole blood, 37° C., 0 min
[6] = after 0 min in mice whole blood at 37° C.
[7] = after 1 min in mice whole blood at 37° C.
[8] = after 2 min in mice whole blood at 37° C.
[9] = after 3 min in mice whole blood at 37° C.
[10] = after 5 min in mice whole blood at 37° C.
[11] = after 10 min in mice whole blood at 37° C.
[12] = after 20 min in mice whole blood at 37° C.
[13] = after 60 min in mice whole blood at 37° C.
[14] = after 180 min in mice whole blood at 37° C.

Row | Stability ([3]; 1 min) | Stability ([3]; 2 min) | Stability ([3]; 3 min) | Stability ([3]; 5 min) | Stability ([3]; 10 min) | Stability ([3]; 20 min) | Stability ([3]; 60 min) | Stability ([3]; 180 min) | SMILES | Second-order rate constant k2 [1] | fraction of tetrazines reacted to the TCO (TCO click ability; 30 sec) | fraction of tetrazines reacted to the TCO (TCO click ability; 1 min) | fraction of tetrazines reacted to the TCO (TCO click ability; 2 min) | fraction of tetrazines reacted to the TCO (TCO click ability; 3 min) | fraction of tetrazines reacted to the TCO (TCO click ability; 5 min) | TCO click ability [4, 6] | TCO click ability [4, 7] | TCO click ability [4, 8] | TCO click ability [4, 9] | TCO click ability [4, 10] | TCO click ability [4, 11] | also measured
1 |  |  |  |  |  |  |  |  | [18F]c1cccc(-c2nncnn2)c1 [[^18F]9] | 222 M⁻¹ s⁻¹ | 100% | 100% | 100% | 100% |  |  |  |  |  |  |  | fraction of tetrazines reacted to the TCO (TCO click ability; 15 sec): 100%; PET uptake in bones (knee), the target region of BP-TCOs, compared to controls [2]: higher uptake; PET uptake in control region (the heart), treated vs non-treated mice [2]: no differences could be detected
2 | 72% | 85% | 89% | 88% | 90% | 89% | 88% | 82% | [18F]c1ccc(-c2nncnn2)cc1 [[^18F]8] | 159 M⁻¹ s⁻¹ |  | 100% | 100% | 100% | 100% | 100% | 100% | 100% | 100% | 100% | 100% | TCO click ability [4, 12]: 100%; TCO click ability [4, 13]: 100%; TCO click ability [4, 14]: 100%; Stability [5]: 90%
3 | 95% | 96% | 95% | 95% | 96% | 96% | 96% | 77% | Cc1nnc(-c2cccc([18F])c2)nn1 [[^18F]7] |  | 100% | 100% | 100% | 100% | 100% | 100% | 100% | 100% | 100% | 100% | 100% | TCO click ability [4, 12]: 100%; TCO click ability [4, 13]: 100%; TCO click ability [4, 14]: 100%; Stability [5]: 94%
4 |  |  |  |  |  |  |  |  | Cc1nnc(-c2ccc([18F])cc2)nn1 [[^18F]6] | 2.25 M⁻¹ s⁻¹ | 100% | 100% | 100% | 100% | 100% |  |  |  |  |  |  | 
